Test results taken from patent US20230382920A1, “SHMT Inhibitors” (The Trustees of Princeton University, priority 2020, published 2023).

System: HCT116
Test: HCT116 growth inhibition assay
Assay type: cell-based
Conditions: without formate
Experimental: Example 5. HCT116 Growth Inhibition and Formate Rescue Assays
3,000 Cells were plated in each well of a 96-well plate with 80 μL of DMEM media supplemented with 10% dFBS, and incubated for 24 hours. Drugs with or without sodium formate (1 mM) were then added to each well to a final volume of 100 μL. Cell growth was measured as fluorescence intensity by resazurin after four days. In short, resazurin was added to each well to a final concentration of 10 μg·mL^−1. After incubation for one hour, fluorescence was measured by a Synergy HT plate reader (BioTek Instruments).

Structure (SMILES)	IC50
Cc1n[nH]c2c1C(c1cc(C#C[C@H]3C[C@@H](CO)C3)cc(C(C)(C)O)c1)(C(C)C)C(C#N)=C(N)O2 (some centres unmarked) [KDG-0260-100]	D″
Cc1n[nH]c2c1C(c1cc(C#C[C@H]3C[C@@H](COC(N)=O)C3)cc(C(C)(C)O)c1)(C(C)C)C(C#N)=C(N)O2 (some centres unmarked) [KDG-0262-100]	C″
CC(=O)O[C@]1(C)C[C@H](C#Cc2cc(CO)cc(C3(C(C)C)C(C#N)=C(N)Oc4[nH]nc(C)c43)c2)C1 (some centres unmarked) [KDG-0269]	B″
Cc1n[nH]c2c1C(c1cc(C#CC3CCC(=O)CC3)cc(CO)c1)(C(C)C)C(C#N)=C(N)O2 (centres unmarked) [KDG-0270-100]	B″
Cc1n[nH]c2c1C(c1cc(C#CC3CNC3)cc(CO)c1)(C(C)C)C(C#N)=C(N)O2 (centres unmarked) [KDG-0271-200]	D″
CC(=O)O[C@]1(C)CC[C@H](C#Cc2cc(CO)cc(C3(C(C)C)C(C#N)=C(N)Oc4[nH]nc(C)c43)c2)CC1 (some centres unmarked) [KDG-0272]	A″
COC(=O)N1CC(C#Cc2cc(CO)cc(C3(C(C)C)C(C#N)=C(N)Oc4[nH]nc(C)c43)c2)C1 (centres unmarked) [KDG-0281]	B″
CC(=O)OCc1cc(C#CC2CN(C(=O)OC(C)(C)C)C2)cc(C2(C(C)C)C(C#N)=C(N)Oc3[nH]nc(C)c32)c1 (centres unmarked) [KDG-0284]	B″
Cc1n[nH]c2c1C(c1cc(C#CC3CCN(C(=O)OC(C)(C)C)C3)cc(CO)c1)(C(C)C)C(C#N)=C(N)O2 (centres unmarked) [KDG-0287]	B″
Cc1n[nH]c2c1C(c1cc(C#CC3CCCN(C(=O)OC(C)(C)C)C3)cc(CO)c1)(C(C)C)C(C#N)=C(N)O2 (centres unmarked) [KDG-0288]	C″
Cc1n[nH]c2c1C(c1cc(C#CC3(C)CCN(C(=O)OC(C)(C)C)C3)cc(CO)c1)(C(C)C)C(C#N)=C(N)O2 (centres unmarked) [KDG-0304]	B″
COC(=O)N1CCC(C)(C#Cc2cc(CO)cc(C3(C(C)C)C(C#N)=C(N)Oc4[nH]nc(C)c43)c2)CC1 (centres unmarked) [KDG-0308]	B″
Cc1n[nH]c2c1C(c1cc(C#C[C@H]3C[C@@H](NC(=O)OC(C)(C)C)C3)cc(CF)c1)(C(C)C)C(C#N)=C(N)O2 (some centres unmarked) [KDG-0383]	B″
Cc1n[nH]c2c1C(c1cc(C#C[C@H]3C[C@H](NC(=O)OC(C)(C)C)C3)cc(CO)c1)(C(C)C)C(C#N)=C(N)O2 (some centres unmarked) [KDG-0385, tert-butyl N-[(1r,3r)-3-[2-(3-[6-amino-5-cyano-4-isopropyl-3-methyl-1H-pyrano[2,3-c]pyrazol-4-yl]-5-(hydroxymethyl)phenyl)ethynyl]cyclobutyl]carbamate]	B″
Cc1n[nH]c2c1C(c1cc(C#C[C@H]3C[C@H](NC(=O)OC(C)(C)C)C3)cc(CF)c1)(C(C)C)C(C#N)=C(N)O2 (some centres unmarked) [KDG-0390]	B″
Cc1n[nH]c2c1C(c1cc(C#C[C@H]3C[C@@H](CNC(=O)OC(C)(C)C)C3)cc(CO)c1)(C(C)C)C(C#N)=C(N)O2 (some centres unmarked) [KDG-0395-100]	B″
COCC(C)(C)OC(=O)N1CC(C#Cc2cc(CO)cc(C3(C(C)C)C(C#N)=C(N)Oc4[nH]nc(C)c43)c2)C1 (centres unmarked) [KDG-0418]	B″
Cc1n[nH]c2c1C(c1cc(C#C[C@H]3C[C@@H](NC(=O)OCc4ccccc4)C3)cc(CO)c1)(C(C)C)C(C#N)=C(N)O2 (some centres unmarked) [KDG-0521]	A″
Cc1n[nH]c2c1C(c1cc(C#C[C@H]3C[C@@H](NC(=O)OCC(C)(C)C)C3)cc(CO)c1)(C(C)C)C(C#N)=C(N)O2 (some centres unmarked) [KDG-0524]	B″
Cc1n[nH]c2c1C(c1cc(C#C[C@H]3C[C@@H](NC(=O)CC(C)(C)C)C3)cc(CO)c1)(C(C)C)C(C#N)=C(N)O2 (some centres unmarked) [KDG-0527]	B″
Cc1n[nH]c2c1C(c1cc(C#C[C@H]3C[C@@H](NCC(=O)N(C)C)C3)cc(CO)c1)(C(C)C)C(C#N)=C(N)O2 (some centres unmarked) [KDG-0530]	D″
Cc1n[nH]c2c1C(c1cc(C#CC3CN(C(=O)CN(C)C)C3)cc(CO)c1)(C(C)C)C(C#N)=C(N)O2 (centres unmarked) [KDG-0547]	D″
Cc1n[nH]c2c1C(c1cc(C#CC34CC(C(=O)N(C)C)(C3)C4)cc(CO)c1)(C(C)C)C(C#N)=C(N)O2 (centres unmarked) [KDG-0558]	C″
Cc1nnc(C23CC(C#Cc4cc(CO)cc(C5(C(C)C)C(C#N)=C(N)Oc6[nH]nc(C)c65)c4)(C2)C3)o1 (centres unmarked) [KDG-0573]	B″
Cc1n[nH]c2c1C(c1cc(C#C[C@H]3C[C@@H](NC(=O)OC(C)(C)C)C3)cc(C(F)(F)F)c1)(C(C)C)C(C#N)=C(N)O2 (some centres unmarked) [KDG-0574]	B″

Results, then the compound that gave them:

IC50	Structure (SMILES)
B″	Cc1n[nH]c2c1C(c1cc(C#C[C@H]3C[C@H](C(C)(C)O)C3)cc(CO)c1)(C(C)C)C(C#N)=C(N)O2 (some centres unmarked) [KDG-0258-100]
A″	Cc1n[nH]c2c1C(c1cc(C#C[C@H]3C[C@H](C(C)(C)O)C3)cc(CO)c1)(C(C)C)C(C#N)=C(N)O2 (some centres unmarked) [KDG-0258]
C″	Cc1n[nH]c2c1C(c1cc(C#C[C@H]3C[C@H](C(C)(C)O)C3)cc(C(C)(C)O)c1)(C(C)C)C(C#N)=C(N)O2 (some centres unmarked) [KDG-0261]
B″	Cc1n[nH]c2c1C(c1cc(C#C[C@H]3C[C@@H](C(=O)N(C)C)C3)cc(CO)c1)(C(C)C)C(C#N)=C(N)O2 (some centres unmarked) [KDG-0265-100]
B″	CC(=O)OCC1CC(C#Cc2cc(CO)cc(C3(C(C)C)C(C#N)=C(N)Oc4[nH]nc(C)c43)c2)C1 (centres unmarked) [KDG-0266]
C″	Cc1n[nH]c2c1C(c1cc(C#C[C@H]3C[C@@](C)(O)C3)cc(CO)c1)(C(C)C)C(C#N)=C(N)O2 (some centres unmarked) [KDG-0268]
A″	Cc1n[nH]c2c1C(c1cc(C#CC3CN(C(=O)OC(C)(C)C)C3)cc(CO)c1)(C(C)C)C(C#N)=C(N)O2 (centres unmarked) [KDG-0271-0-pk1]
D″	Cc1n[nH]c2c1C(c1cc(C#CC3CN(C(=O)OC(C)(C)C)C3)cc(CO)c1)(C(C)C)C(C#N)=C(N)O2 (centres unmarked) [KDG-0271-0-pk2]
A″	Cc1n[nH]c2c1C(c1cc(C#CC3CN(C(=O)OC(C)(C)C)C3)cc(COC(=O)C(C)C)c1)(C(C)C)C(C#N)=C(N)O2 (centres unmarked) [KDG-0293]
B″	Cc1n[nH]c2c1C(c1cc(C#CC3CN(C(=O)OC(C)(O)O)C3)cc(COC(=O)C(N)C(C)O)c1)(C(C)C)C(C#N)=C(N)O2 (centres unmarked) [KDG-0294]
B″	Cc1n[nH]c2c1C(c1cc(C#C[C@H]3C[C@](C)(NC(=O)OC(C)(C)C)C3)cc(CO)c1)(C(C)C)C(C#N)=C(N)O2 (some centres unmarked) [KDG-0387]
B″	Cc1n[nH]c2c1C(c1cc(C#C[C@H]3C[C@H](CNC(=O)OC(C)(C)C)C3)cc(CO)c1)(C(C)C)C(C#N)=C(N)O2 (some centres unmarked) [KDG-0395]
B″	CCC(C)(C)OC(=O)N1CC(C#Cc2cc(CO)cc(C3(C(C)C)C(C#N)=C(N)Oc4[nH]nc(C)c43)c2)C1 (centres unmarked) [KDG-0411]
A″	Cc1n[nH]c2c1C(c1cc(C#CC3CN(C(=O)OC(C)C)C3)cc(CO)c1)(C(C)C)C(C#N)=C(N)O2 (centres unmarked) [KDG-0416]
C″	Cc1nnc(N[C@H]2CC[C@@H](C#Cc3cc(CO)cc(C4(C(C)C)C(C#N)=C(N)Oc5[nH]nc(C)c54)c3)CC2)o1 (some centres unmarked) [KDG-0516]
C″	Cc1nnc(N[C@H]2CC[C@H](C#Cc3cc(CO)cc(C4(C(C)C)C(C#N)=C(N)Oc5[nH]nc(C)c54)c3)CC2)o1 (some centres unmarked) [KDG-0518]
A″	Cc1n[nH]c2c1C(c1cc(C#C[C@H]3C[C@@H](NC(=O)OC(C)C)C3)cc(CO)c1)(C(C)C)C(C#N)=C(N)O2 (some centres unmarked) [KDG-0520]
B″	COC(=O)N[C@H]1C[C@H](C#Cc2cc(CO)cc(C3(C(C)C)C(C#N)=C(N)Oc4[nH]nc(C)c43)c2)C1 (some centres unmarked) [KDG-0522-100]
B″	COC(=O)N[C@H]1C[C@@H](C#Cc2cc(CO)cc(C3(C(C)C)C(C#N)=C(N)Oc4[nH]nc(C)c43)c2)C1 (some centres unmarked) [KDG-0522]
B″	Cc1n[nH]c2c1C(c1cc(C#C[C@H]3C[C@@H](NC(=O)NC(C)(C)C)C3)cc(CO)c1)(C(C)C)C(C#N)=C(N)O2 (some centres unmarked) [KDG-0523]
B″	Cc1n[nH]c2c1C(c1cc(C#C[C@H]3C[C@@H](NC(=O)C(C)(C)C)C3)cc(CO)c1)(C(C)C)C(C#N)=C(N)O2 (some centres unmarked) [KDG-0526]
C″	Cc1n[nH]c2c1C(c1cc(C#C[C@H]3C[C@@H](NC(=O)CN(C)C)C3)cc(CO)c1)(C(C)C)C(C#N)=C(N)O2 (some centres unmarked) [KDG-0554]
C″	Cc1n[nH]c2c1C(c1cc(C#C[C@H]3C[C@H](NC(=O)CN(C)C)C3)cc(CO)c1)(C(C)C)C(C#N)=C(N)O2 (some centres unmarked) [KDG-0555]

System: not listed separately
Test: Mouse liver microsome assay (metabolic stability)
Assay type: in vitro ADME
Conditions: mouse liver microsomes, in vitro half-life
Experimental: Example 6. Mouse Liver Microsome Assay
Metabolic stability of several compounds in mouse liver microsomes was tested. Briefly, a master solution was prepared according to Table 31.
Two separate experiments were performed: an experiment with cofactors and an experiment without cofactors. In the experiment with cofactors 40 μL of 10 mM NADPH and 40 μL of 20 mM UDPGA were added to the incubations. The final concentrations of microsomes, NADPH and UDPGA were 0.5 mg/mL, 1 mM and 2 mM, respectively. In the experiment without cofactors 10 μL of 20 mg/mL liver microsomes and 80 μL of ultra-pure H2O were added to the incubations. The final concentration of microsomes was 0.5 mg/mL. The mixture was pre-warmed at 37° C. for 5 minutes.
The reaction was started with the addition of 4 μL of 200 μM control compound or test compound solutions. Verapamil was used as positive control in this study. The final concentration of test compound was 2 μM and the final concentration of control compound was 1 μM. The incubation solution was incubated in water bath at 37° C.
Aliquots of 50 μL were taken from the reaction solution at 0.5, 5, 15, 30, 45 and 60 minutes. The reaction was stopped by the addition of five volumes of cold acetonitrile with IS (100 nM alprazolam, 200 nM caffeine and 100 nM tolbutamide). Samples were centrifuged at 3,220 g for 40 minutes. Aliquot of 100 μL of the supernatant was mixed with 100 μL of ultra-pure H2O and then subject to LC-MS/MS analysis.
All calculations were carried out using Microsoft Excel. Peak areas were determined from extracted ion chromatograms. The slope value, k, was determined by linear regression of the natural logarithm of the remaining percentage of the parent drug versus incubation time curve. The in vitro half-life (in vitro t½) was determined from the slope value:
Conversion of the in vitro t1/2(min) into the in vitro intrinsic clearance (in vitro CLint, in μL/min/mg protein) was done using the following equation (mean of duplicate determinations): […]

half-life at 2 µM [min]	Structure (SMILES)
< 5	Cc1n[nH]c2c1C(c1cc(C#C[C@H]3C[C@H](C(C)(C)O)C3)cc(CO)c1)(C(C)C)C(C#N)=C(N)O2 (some centres unmarked) [KDG-0258]
5 to 10	Cc1n[nH]c2c1C(c1cc(C#CC3(C)CN(C(=O)OC(C)(C)C)C3)cc(CO)c1)(C(C)C)C(C#N)=C(N)O2 (centres unmarked) [KDG-0300]
< 5	Cc1n[nH]c2c1C(c1cc(C#C[C@H]3C[C@H](C(=O)OC(C)(C)C)C3)cc(CO)c1)(C(C)C)C(C#N)=C(N)O2 (some centres unmarked) [KDG-0393]

Same assay, conditions: mouse liver microsomes, in vitro intrinsic clearance; read-out: Relative Clint

microsomal CLint at 2 µM [µL/min/mg]	Structure (SMILES)
> 250	Cc1n[nH]c2c1C(c1cc(C#C[C@H]3C[C@H](C(C)(C)O)C3)cc(CO)c1)(C(C)C)C(C#N)=C(N)O2 (some centres unmarked) [KDG-0258]
> 250	Cc1n[nH]c2c1C(c1cc(C#CC3(C)CN(C(=O)OC(C)(C)C)C3)cc(CO)c1)(C(C)C)C(C#N)=C(N)O2 (centres unmarked) [KDG-0300]
